Source: article PMC7961996, “Small Immunomodulatory Molecules as Potential Therapeutics in Experimental Murine Models of Acute Lung Injury (ALI)/Acute Respiratory Distress Syndrome (ARDS)” (International Journal of Molecular Sciences, 2021)

Assays:
[1] = test system: LPS-induced ALI mice; assay: LPS-induced ALI murine model; format: in vivo, C57BL6/J mice
Procedure: For the mouse efficacy studies, both AVR-25 and AVR-48 were reconstituted in 0.9% sterile normal saline to give a final concentration of 10 mg/kg; 125 µL was administered intraperitoneally (IP) for hyperoxia- and LPS- induced lung injury, and IV via the lateral tail vein for CLP-induced lung injury. Imipenem (Primaxin®) was formulated in sterile 0.9% saline solution and administered subcutaneously (SC) at a dose of 5 mg/kg to mice in a 0.2 mL volume near the dorsal scapular region for CLP-induced lung injury study. LPS was dissolved in sterile 0.9% saline solution and 100 µL was administered intratracheally for the ALI study.
Three models of ALI were used in the current study: hyperoxia-, LPS-, and CLP-induced lung injury: LPS-induced ALI was induced by administering a one-time intratracheal instillation of LPS (100 µg in a volume of 100 µL). Animals were sacrificed after 24 h following LPS administration while two doses of AVR-25 and AVR-48 were administered (10 mg/kg, IP) at 4 h and 12 h following LPS dosing. Hyperoxia-induced ALI was initiated by keeping the mice in cages in airtight polypropylene chamber exposed to hyperoxia (100% oxygen) for 48 h, following a standard protocol. Two doses of AVR-25 and AVR-48 were administered (10 mg/kg, IP) at 4 h and 12 h following hyperoxia exposure, and mice were sacrificed after 48 h.
At the end of the experimental time points for all the above groups, the mice were euthanized with an overdose of a cocktail of xylazine (100 mg/kg)/ketamine (10 mg/kg, IP) and BALF and lung tissues were harvested for further analysis. Male mice were used for all the ALI experiments.
BALF was obtained from the anesthetized mice by cannulating the upper part of the trachea with a blunt 22-gauge needle and then by lavaging three times with 1.0 mL of cold PBS (pH 7.4). The fluid recovery rate was about 90%. Lavaged samples were kept on ice, and the BALF was centrifuged at 4 °C. Total cell counts in BALF were determined using the TC20 automated cell counter (Bio-Rad Laboratories, Inc., Hercules, CA, USA). The differential cell counts were performed on cytospin preparations after staining with the Hema 3 differential Staining kit (Fisher Scientific, Kalamazoo, MI, USA). Total protein concentration in the BALF was measured using the Pierce^TM BCA assay kit (Fisher Scientific Co, Houston, TX, USA), as previously described.
Lung endothelium permeability was determined by measuring the accumulation of Evans blue in the lungs, as previously described. In brief, Evans blue dye (EBD) solution (Sigma-Aldrich, Inc., St. Louis, MO, USA, 5 mg/mL) was injected into the tail vein at a concentration of 50 mg/kg before 30 min of the experimental time point. At the experimental time points, lungs were excised and weighed. EBD was extracted in 2 mL formamide kept in a water bath at 60 °C for 3 h, and the samples were centrifuged at 500 g for 10 min. The absorption of light at 595 nm was measured spectrophotometrically (Microplate reader, Bio-Rad Laboratories, Hercules, CA, USA) with the supernatants.
Interleukin (IL)-6, IL-1β, and IL-10 were quantified on BALF while E-selectin was quantified in lung homogenate using commercially available DuoSet® ELISA kits (R&D Systems, Minneapolis, MN, USA) according to the manufacturer’s instructions, as previously described. Briefly, Nalgene Nunc Maxisorp™ plates were coated overnight with antibodies to IL-6 (2 µg/mL), IL-1β (2 µg/mL) IL-10 (2 µg/mL), or E-selectin (2 µg/mL) and the following morning plates were washed and blocked for 2 h. Samples were added to the wells at various dilutions and then incubated with detection antibody for 2 h. Plates were subsequently washed, and streptavidin-HRP conjugate antibody was added to each well for 20 min. […]

[2] = Pharmacokinetic study, bronchoalveolar lavage fluid (BALF); format: in vivo, Sprague Dawley rats
Procedure: All PK studies were also conducted with 8–10-week-old male and female Sprague Dawley rats. An additional nine animals/sex/dose were used for PK analysis and blood (approximately 0.3 mL each) was collected from each rat on days 1 and 3 of the treatment period at time points of 5, 30, 60, 90, 120, and 180 min, and 6, 12 h, and 24 h post dose that were randomized to provide a total of three samples/sex for each time point. Samples were collected by jugular venipuncture and the samples were collected into tubes containing the anticoagulant, K3EDTA. The collection of BALF was limited to the terminal time points of 6 h, 12 h, and 24 h. AVR-48 concentrations in the blood and BALF were determined using LC/MS/MS analysis developed in house. PK parameters were estimated using Phoenix pharmacokinetic software (Certara, Princeton, NJ, USA) using a non-compartmental approach consistent with the IV bolus injection.

[3] = test system: CLP-induced sepsis mice; assay: CLP-induced sepsis survival study; format: in vivo, C57BL6/J mice; conditions: AVR-48 10 mg/kg IV at 16 h and 24 h after CLP, imipenem 5 mg/kg SC at 30 min; 10 days; CLP alone 100% mortality within 72 h
Procedure: For CLP-induced lung injury, CLP was performed as previously described by us. As antibiotics are the standard of care in sepsis patients, one dose of imipenem was given SC at 5 mg/kg 30 min after the procedure, followed by two doses of AVR-48 (10 mg/kg, IV) at 16 h and 24 h following the surgery, and sacrificed after 72 h. The sham mice (controls) had the abdominal cavity opened, the cecum was not perforated, and the peritoneum was stitched back.
For the survival study of CLP-induced ALI, mice were injected with 2 doses of AVR-48 (IV) followed by 1 dose of imipenem (SC) as described in the CLP methodology, and allowed to survive for 10 days. Sterility was maintained throughout the procedure by operating the animals under a laminar hood. Following the procedure, the animals were returned back to the animal room for subsequent monitoring and follow up. The body temperature was recorded every 24h and feeding and social behavior was also observed. They were fed with semisolid food for 48h before resuming their regular chow diet. All mice were sacrificed after 10 days. (N=3 for sham and 5 for the rest of the groups). A CLP + imipenem group was not done in this study, as we have published this group […]
imipenem, better than CLP + imipenem alone. Histopathology of the vital organs was performed and scored as previously published (37, 38) and noted in the methods section of this paper.

[4] = 10 mg/kg IP at 4 h and 12 h after LPS, 24 h, vs untreated ALI mice

CC(=O)N[C@H]1[C@H](Oc2ccc([N+](=O)[O-])cc2)O[C@H](CO)[C@@H](O)[C@@H]1O [AVR-48, N-((2S,3R,4R,5S,6R)-4,5-dihydroxy-6-(hydroxymethyl)-2-(4-nitrophenoxy)tetrahydro-2H-pyran-3-yl) acetamide]
pro-inflammatory cytokines IL-1β and IL-6 levels in BALF and lung tissues ([1]; 10 mg/kg IP at 4 h and 12 h after LPS, 24 h, ELISA, Western blot): decreased | neutrophil cell counts in BALF [1, 4]: decreased counts | total inflammatory cell counts in BALF [1, 4]: decreased counts | Evans Blue dye leak concentration in the lungs ([1]; 10 mg/kg IP x2): diminished levels | expression of lung adhesion molecules ICAM-1, VCAM-1, and E-selectin in whole lung tissue ([1]; 10 mg/kg IP x2): decreased expression | total proteins in BALF (pulmonary edema) ([1]; 10 mg/kg IP x2): diminished levels | lung injury score (H&E) ([1]; 10 mg/kg IP x2, 0-4 scoring, vs ALI mice without treatment): decreased lung injury scores | IL-10 levels in BALF ([1]; 10 mg/kg IP x2, ELISA, vs non-treated ALI mice): further increase | expression of cleaved caspase-3 in lungs (lung cell death) ([1]; 10 mg/kg IP x2, Western blot): reduced expression | expression of endothelial AJ proteins VE-cadherin and β-catenin in whole lungs ([1]; 10 mg/kg IP x2, Western blot): increased expression | AVR-48 in BALF ([2]; 6 h post administration): measurable concentrations | Kp at 6 h ([2]; Sprague Dawley, rat, BALF (bronchoalveolar lavage fluid) relative to plasma, intravenous, 6 h time point, read-out: BALF-to-plasma ratio): 2.81 to 9.08 | AVR-48 in BALF ([2]; by 12 h): below the limit of detection | survival [3]: 80%
